According to US20150087673A1, “METHODS FOR USING AND BIOMARKERS FOR AMPK-ACTIVATING COMPOUNDS” (RIGEL PHARMACEUTICALS, INC., priority 2013, published 2015):

Tested on: AMPK
Experiment: AMPK activation assay (enzyme-linked immunosorbent assay)
Format: cell-based
Procedure, shortened: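 Kit-based immunoassay; compounds screened as activators; standard reagents and protocol.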

Row | Structure (SMILES) | EC50 [nM]
1 | N#Cc1ccc(CN2CCC(NC(=O)c3ccc(N4CCN(Cc5ccccc5)CC4)cn3)CC2)cc1 [Compound 110, 5-(4-benzylpiperazin-1-yl)-N-(1-(4-cyanobenzyl)piperidin-4-yl)picolinamide] | 1000 to 5000
2 | CC(C)(c1ccc(C#N)cc1)N1CCC(NC(=O)c2ccc(C(=O)N3CCN(Cc4ccc(F)cc4)CC3)cn2)CC1 [Compound 111, N-(1-(2-(4-cyanophenyl)propan-2-yl)piperidin-4-yl)-5-(4-(4-fluorobenzyl)piperazine-1-carbonyl)picolinamide] | 1000 to 5000
3 | O=C(NC1CCN(Cc2ccccc2)CC1)c1ccc(Nc2cccc(Oc3ccccc3)c2)cn1 [Compound 112, N-(1-benzylpiperidin-4-yl)-5-(3-phenoxyphenylamino)picolinamide] | 1000 to 5000
4 | O=C(NC1CCN(Cc2ccccc2)CC1)c1ccc(Nc2ccc(Oc3ccccc3)cc2)cn1 [Compound 113, N-(1-benzylpiperidin-4-yl)-5-(4-phenoxyphenylamino)picolinamide] | 1000 to 5000
5 | O=C(NC1CCN(Cc2ccccc2)CC1)c1ccc(Nc2cccc(-c3ccccc3)c2)cn1 [Compound 114, N-(1-benzylpiperidin-4-yl)-5-(biphenyl-3-ylamino)picolinamide] | 1000 to 5000
6 | O=C(NCc1ccccc1)c1ccc(C(=O)N2CCN(Cc3ccc(F)cc3)CC2)cn1 [Compound 115, N-benzyl-5-(4-(4-fluorobenzyl)piperazine-1-carbonyl)picolinamide] | 5000 to 10000
7 | O=C(NCc1ccccc1)c1ccc(C(=O)N2CCN(Cc3ccccc3)CC2)cn1 [Compound 116, N-benzyl-5-(4-benzylpiperazine-1-carbonyl)picolinamide] | 1000 to 5000
8 | COc1ccc(CN2CCC(NC(=O)c3ccc(C(=O)N4CCN(Cc5ccc(F)cc5)CC4)cn3)CC2)cc1 [Compound 117, 5-(4-(4-fluorobenzyl)piperazine-1-carbonyl)-N-(1-(4-methoxybenzyl)piperidin-4-yl)picolinamide] | < 500
9 | N#Cc1ccc(CN2CC[C@@H](NC(=O)c3ccc(C(=O)N4CCN(Cc5ccc(F)cc5)CC4)cn3)C2)cc1 [Compound 118, (R)-N-(1-(4-cyanobenzyl)pyrrolidin-3-yl)-5-(4-(4-fluorobenzyl)piperazine-1-carbonyl)picolinamide] | < 500
10 | N#Cc1ccc(-c2ccc(Nc3ccc(C(=O)NC4CCN(Cc5ccccc5)CC4)nc3)cc2)cc1 [Compound 119, N-(1-benzylpiperidin-4-yl)-5-(4′-cyanobiphenyl-4-ylamino)picolinamide] | 1000 to 5000
11 | COc1ccc(-c2ccc(Nc3ccc(C(=O)NC4CCN(Cc5ccccc5)CC4)nc3)cc2)cc1 [Compound 120, N-(1-benzylpiperidin-4-yl)-5-(4′-methoxybiphenyl-4-ylamino)picolinamide] | > 10000
12 | N#Cc1ccc(CN2CCC(NC(=O)c3ccc(-c4cn(Cc5ccccc5)nn4)cn3)CC2)cc1 [Compound 121, 5-(1-benzyl-1H-1,2,3-triazol-4-yl)-N-(1-(4-cyanobenzyl)piperidin-4-yl)picolinamide] | 1000 to 5000
13 | N#Cc1ccc(CN2CC[C@H](NC(=O)c3ccc(C(=O)N4CCN(Cc5ccc(F)cc5)CC4)cn3)C2)cc1 [Compound 123, (S)-N-(1-(4-cyanobenzyl)pyrrolidin-3-yl)-5-(4-(4-fluorobenzyl)piperazine-1-carbonyl)picolinamide] | < 500
14 | N#Cc1ccc(CN2CCC(NC(=O)c3ccc(C(=O)N4CCC(Cc5ccccc5)CC4)cn3)CC2)cc1 [Compound 124, 5-(4-benzylpiperidine-1-carbonyl)-N-(1-(4-cyanobenzyl)piperidin-4-yl)picolinamide] | < 500
15 | CC1(C)CN(C(=O)c2ccc(C(=O)NC3CCN(Cc4ccc(C#N)cc4)CC3)nc2)CCN1Cc1ccc(F)cc1 [Compound 125, N-(1-(4-cyanobenzyl)piperidin-4-yl)-5-(4-(4-fluorobenzyl)-3,3-dimethylpiperazine-1-carbonyl)picolinamide] | < 500
16 | N#Cc1ccc(CN2CCC(NC(=O)c3ccc(NC4CCN(c5ccccc5)CC4)cn3)CC2)cc1 [Compound 126, N-(1-(4-cyanobenzyl)piperidin-4-yl)-5-(1-phenylpiperidin-4-ylamino)picolinamide] | < 500
17 | N#Cc1ccc(CC2CCN(C(=O)c3ccc(C(=O)NC4CCN(Cc5ccc(C#N)cc5)CC4)nc3)CC2)cc1 [Compound 128, N-(1-(4-cyanobenzyl)piperidin-4-yl)-5-(4-(4-cyanobenzyl)piperidine-1-carbonyl)picolinamide] | < 500
18 | COc1ccc(C(=O)C2CCN(C(=O)c3ccc(C(=O)NC4CCN(Cc5ccc(C#N)cc5)CC4)nc3)CC2)cc1 [Compound 129, N-(1-(4-cyanobenzyl)piperidin-4-yl)-5-(4-(4-methoxybenzoyl)piperidine-1-carbonyl)picolinamide] | < 500

Row | Structure (SMILES) | EC50 [nM]
19 | N#Cc1ccc(CN2CCC(NC(=O)c3ccc(C(=O)N4CCC(Cc5ccc(F)cc5)CC4)cn3)CC2)cc1 [Compound 130, N-(1-(4-cyanobenzyl)piperidin-4-yl)-5-(4-(4-fluorobenzyl)piperidine-1-carbonyl)picolinamide] | < 500
20 | COc1ccc(CC2CCN(C(=O)c3ccc(C(=O)NC4CCN(Cc5ccc(C#N)cc5)CC4)nc3)CC2)cc1 [Compound 131, N-(1-(4-cyanobenzyl)piperidin-4-yl)-5-(4-(4-methoxybenzyl)piperidine-1-carbonyl)picolinamide] | < 500
21 | N#Cc1ccc(CN2CCc3ccc(NC(=O)c4ccc(C(=O)N5CCN(Cc6ccc(F)cc6)CC5)cn4)cc3C2)cc1 [Compound 132, N-(2-(4-cyanobenzyl)-1,2,3,4-tetrahydroisoquinolin-7-yl)-5-(4-(4-fluorobenzyl)piperazine-1-carbonyl)picolinamide] | < 500
22 | CC(C)(c1ccccc1)N1CCN(C(=O)c2ccc(C(=O)NC3CCN(Cc4ccc(C#N)cc4)CC3)nc2)CC1 [Compound 133, N-(1-(4-cyanobenzyl)piperidin-4-yl)-5-(4-(2-phenylpropan-2-yl)piperazine-1-carbonyl)picolinamide] | < 500
23 | N#Cc1ccc(CN2CCC(NC(=O)c3ccc(C(=O)N4CCC(c5ccc(Cl)cc5)CC4)cn3)CC2)cc1 [Compound 134, 5-(4-(4-chlorophenyl)piperidine-1-carbonyl)-N-(1-(4-cyanobenzyl)piperidin-4-yl)picolinamide] | < 500
24 | N#Cc1ccc(CN2CCC(NC(=O)c3ccc(C(=O)N4CCC(Oc5ccc(C#N)cc5)CC4)cn3)CC2)cc1 [Compound 135, N-(1-(4-cyanobenzyl)piperidin-4-yl)-5-(4-(4-cyanophenoxy)piperidine-1-carbonyl)picolinamide] | < 500
25 | N#Cc1ccc(CN2CCC(NC(=O)c3ccc(C(=O)N4CCC(C(=O)c5ccc(F)cc5)CC4)cn3)CC2)cc1 [Compound 136, N-(1-(4-cyanobenzyl)piperidin-4-yl)-5-(4-(4-fluorobenzoyl)piperidine-1-carbonyl)picolinamide] | < 500
26 | N#Cc1ccc(CN2CCC(NC(=O)c3ccc(C(=O)N4CCCC(Oc5ccc(C#N)cc5)C4)cn3)CC2)cc1 (stereo not drawn) [Compound 137, N-(1-(4-cyanobenzyl)piperidin-4-yl)-5-(3-(4-cyanophenoxy)piperidine-1-carbonyl)picolinamide] | < 500
27 | N#Cc1ccc(CN2CCC(NC(=O)c3ccc(C(=O)N4CCC(C(F)c5ccc(F)cc5)CC4)cn3)CC2)cc1 (stereo not drawn) [Compound 138, N-(1-(4-cyanobenzyl)piperidin-4-yl)-5-(4-(fluoro(4-fluorophenyl)methyl)piperidine-1-carbonyl)picolinamide] | < 500
28 | N#Cc1ccc(CN2CCC(NC(=O)c3ccc(NC4CCN(c5ccc(Cl)cc5)CC4)cn3)CC2)cc1 [Compound 139, 5-(1-(4-chlorophenyl)piperidin-4-ylamino)-N-(1-(4-cyanobenzyl)piperidin-4-yl)picolinamide] | < 500
29 | N#Cc1ccc(CN2CCC(NC(=O)c3ccc(C(=O)N4CCN(Cc5cc(F)cc(F)c5)CC4)cn3)CC2)cc1 [Compound 140, N-(1-(4-cyanobenzyl)piperidin-4-yl)-5-(4-(3,5-difluorobenzyl)piperazine-1-carbonyl)picolinamide] | < 500
30 | N#Cc1ccc(CN2CCC(NC(=O)c3ccc(C(=O)N4CCC(Cc5ccc(C(N)=O)cc5)CC4)cn3)CC2)cc1 [Compound 141, 5-(4-(4-carbamoylbenzyl)piperidine-1-carbonyl)-N-(1-(4-cyanobenzyl)piperidin-4-yl)picolinamide] | 500 to 1000
31 | N#Cc1ccc(CN2CCC(NC(=O)c3ccc(C(=O)N4CCC(C(O)c5ccc(F)cc5)CC4)cn3)CC2)cc1 (stereo not drawn) [Compound 142, N-(1-(4-cyanobenzyl)piperidin-4-yl)-5-(4-((4-fluorophenyl)(hydroxy)methyl)piperidine-1-carbonyl)picolinamide] | < 500
32 | COc1ccc(OC2CCN(C(=O)c3ccc(C(=O)NC4CCN(Cc5ccc(C#N)cc5)CC4)nc3)CC2)cc1 [Compound 143, N-(1-(4-cyanobenzyl)piperidin-4-yl)-5-(4-(4-methoxyphenoxy)piperidine-1-carbonyl)picolinamide] | < 500
33 | N#Cc1ccc(CN2CCc3ccc(NC(=O)c4ccc(C(=O)NCc5ccc(F)cc5)cn4)cc3C2)cc1 [Compound 144, N2-(2-(4-cyanobenzyl)-1,2,3,4-tetrahydroisoquinolin-7-yl)-N5-(4-fluorobenzyl)pyridine-2,5-dicarboxamide] | 500 to 1000
34 | Cc1ccc(CC2CCN(C(=O)c3ccc(C(=O)NC4CCN(Cc5ccc(C#N)cc5)CC4)nc3)CC2)cc1 [Compound 145, N-(1-(4-cyanobenzyl)piperidin-4-yl)-5-(4-(4-methylbenzyl)piperidine-1-carbonyl)picolinamide] | < 500
35 | COc1ccc(CC2CCN(C(=O)c3ccc(C(=O)NC4CCN(Cc5ccc(C#N)cc5)CC4)nc3)CC2)cc1F [Compound 146, N-(1-(4-cyanobenzyl)piperidin-4-yl)-5-(4-(3-fluoro-4-methoxybenzyl)piperidine-1-carbonyl)picolinamide] | < 500
36 | COc1cccc(CC2CCN(C(=O)c3ccc(C(=O)NC4CCN(Cc5ccc(C#N)cc5)CC4)nc3)CC2)c1 [Compound 147, N-(1-(4-cyanobenzyl)piperidin-4-yl)-5-(4-(3-methoxybenzyl)piperidine-1-carbonyl)picolinamide] | < 500
